# From patent US7566712B2, “Biaryl piperazinyl-pyridine analogues” (Neurogen Corporation, priority 2003, dated 2009)
# Biological target: T1, human capsaicin receptor (Homo sapiens, UniProt Q8NER1)
# T1 construct: pBK-CMV expression construct encoding the full length human capsaicin receptor; expressed in transfected cells
# Assay: Calcium mobilization assay, determination of antagonist activity (Example 6)
# Format: cell-based
# Conditions: Table II; determined as described in Example 6 (antagonist activity); "*" = 1 micromolar or less
# Method in brief: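 Antagonism measured as inhibition of capsaicin-evoked (final concentration = EC50, from an 8-point 1 nM–3 μM curve) Fluo-3 calcium signal in stable hVR1-HEK293 cells. Test compounds at 1–5 μM final, 0.5–6 h dark preincubation at room temperature. IC50 = concentration giving 50% reduction versus agonist-only response.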
# T1 sequence (Q8NER1 whole entry): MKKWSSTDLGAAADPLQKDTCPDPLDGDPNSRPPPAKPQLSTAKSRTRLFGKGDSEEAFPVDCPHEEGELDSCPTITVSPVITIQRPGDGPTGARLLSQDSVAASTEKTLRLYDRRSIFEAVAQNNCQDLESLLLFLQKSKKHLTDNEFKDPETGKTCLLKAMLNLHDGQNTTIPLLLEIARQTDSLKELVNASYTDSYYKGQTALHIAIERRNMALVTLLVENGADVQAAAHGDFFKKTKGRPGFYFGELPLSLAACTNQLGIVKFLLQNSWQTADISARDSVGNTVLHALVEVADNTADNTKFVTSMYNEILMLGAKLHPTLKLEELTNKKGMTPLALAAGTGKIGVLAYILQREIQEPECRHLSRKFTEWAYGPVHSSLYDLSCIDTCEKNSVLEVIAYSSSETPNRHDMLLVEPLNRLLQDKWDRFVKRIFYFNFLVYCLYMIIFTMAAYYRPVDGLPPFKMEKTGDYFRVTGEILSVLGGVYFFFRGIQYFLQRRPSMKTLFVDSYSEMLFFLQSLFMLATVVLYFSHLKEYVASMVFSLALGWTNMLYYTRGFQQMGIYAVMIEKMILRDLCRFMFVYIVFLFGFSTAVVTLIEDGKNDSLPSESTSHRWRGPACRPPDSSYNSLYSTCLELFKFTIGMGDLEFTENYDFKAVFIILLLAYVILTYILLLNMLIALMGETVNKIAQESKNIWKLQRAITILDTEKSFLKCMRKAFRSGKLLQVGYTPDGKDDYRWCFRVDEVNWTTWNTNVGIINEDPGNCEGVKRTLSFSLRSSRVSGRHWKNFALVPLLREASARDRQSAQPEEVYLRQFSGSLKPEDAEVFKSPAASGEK
row,Structure (SMILES),IC50
1,"COc1ccc(Cl)c(N2CCN(c3cc(-c4ccc(F)c(Cl)c4)nc(N4CCCC4C)n3)CC2)n1 (stereo not drawn) [Example 918, 4-(3-chloro-4-fluorophenyl)-6-[4-(3-chloro-6-methoxypyridin-2-yl)piperazin-1-yl]-2-(2-methylpyrrolidin-1-yl)pyrimidine]",≤ 1 µM
2,"C[C@@H]1CN(c2nccnc2Cl)CCN1c1nc(Cl)cc(-c2ccc(F)cc2)n1 [Example 919, 4-chloro-2-[(2R)-4-(3-chloropyrazin-2-yl)-2-methylpiperazin-1-yl]-6-(4-fluorophenyl)pyrimidine]",≤ 1 µM
3,"C[C@@H]1CN(c2nccnc2Cl)CCN1c1cc(-c2ccc(F)cc2)nc(Cl)n1 [Example 920, 2-chloro-4-[(2R)-4-(3-chloropyrazin-2-yl)-2-methylpiperazin-1-yl]-6-(4-fluorophenyl)pyrimidine]",≤ 1 µM
4,"C[C@H]1CN(c2ncccc2Cl)CCN1c1cc(-c2ccc(F)c(F)c2)nc(N2CCCC2)n1 [Example 921, 4-[(2S)-4-(3-chloropyridin-2-yl)-2-methylpiperazin-1-yl]-6-(3,4-difluorophenyl)-2-pyrrolidin-1-ylpyrimidine]",≤ 1 µM
5,"CC1CCCN1c1nc(-c2ccc(F)c(F)c2)cc(N2CCN(c3ncccc3Cl)C[C@@H]2C)n1 (stereo partly drawn) [Example 922, 4-[(2S)-4-(3-chloropyridin-2-yl)-2-methylpiperazin-1-yl]-6-(3,4-difluorophenyl)-2-(2-methylpyrrolidin-1-yl)pyrimidine]",≤ 1 µM
6,"C[C@H]1CN(c2ncccc2Cl)CCN1c1cc(-c2ccc(F)c(F)c2)nc(N2CCOCC2)n1 [Example 923, 4-[4-[(2S)-4-(3-chloropyridin-2-yl)-2-methylpiperazin-1-yl]-6-(3,4-difluorophenyl)pyrimidin-2-yl]morpholine]",≤ 1 µM
7,"Cc1cc(-c2cc(N3CCN(c4ncccc4Cl)C[C@H]3C)nc(N3CCC[C@H]3C)n2)ccc1F [Example 924, 4-[(2R)-4-(3-chloropyridin-2-yl)-2-methylpiperazin-1-yl]-6-(4-fluoro-3-methylphenyl)-2-[(2R)-2-methylpyrrolidin-1-yl]pyrimidine]",≤ 1 µM
8,"C[C@@H]1CN(c2ncccc2Cl)CCN1c1cc(-c2ccc(F)c(F)c2)nc(N2CCC[C@H]2C)n1 [Example 925, 4-[(2R)-4-(3-chloropyridin-2-yl)-2-methylpiperazin-1-yl]-6-(3,4-difluorophenyl)-2-[(2R)-2-methylpyrrolidin-1-yl]pyrimidine]",≤ 1 µM
9,"CC1CCCN1c1nc(-c2ccc(F)cc2)cc(N2CCN(c3nccnc3Cl)C[C@H]2C)n1 (stereo partly drawn) [Example 926, 4-[4-(3-chloropyrazin-2-yl)-2-methylpiperazin-1-yl]-6-(4-fluorophenyl)-2-(2-methylpyrrolidin-1-yl)pyrimidine]",≤ 1 µM
10,"C[C@@H]1CN(c2nccnc2Cl)CCN1c1cc(-c2ccc(F)cc2)nc(N2CCC[C@H]2C)n1 [Example 927, 4-[(2R)-4-(3-chloropyrazin-2-yl)-2-methylpiperazin-1-yl]-6-(4-fluorophenyl)-2-[(2R)-2-methylpyrrolidin-1-yl]pyrimidine]",≤ 1 µM
11,"C[C@@H]1CN(c2nccnc2Cl)CCN1c1cc(-c2ccc(F)cc2)nc(N2CCCC2)n1 [Example 928, 4-[(2R)-4-(3-chloropyrazin-2-yl)-2-methylpiperazin-1-yl]-6-(4-fluorophenyl)-2-pyrrolidin-1-ylpyrimidine]",≤ 1 µM
12,"C[C@@H]1CN(c2nccnc2Cl)CCN1c1cc(-c2ccc(F)cc2)nc(N2CCOCC2)n1 [Example 929, 4-[4-[(2R)-4-(3-chloropyrazin-2-yl)-2-methylpiperazin-1-yl]-6-(4-fluorophenyl)pyrimidin-2-yl]morpholine]",≤ 1 µM
13,"C[C@@H]1CCCN1c1nc(-c2ccc(F)c(F)c2)cc(N2CCN(c3ncccc3Cl)C[C@@H]2C)n1 [Example 930, 4-[(2S)-4-(3-chloropyridin-2-yl)-2-methylpiperazin-1-yl]-6-(3,4-difluorophenyl)-2-[(2R)-2-methylpyrrolidin-1-yl]pyrimidine]",≤ 1 µM
14,"Cc1cc(C#N)cnc1N1CCN(c2cc(-c3ccc(F)cc3)nc(N3CCCC3C)n2)CC1 (stereo not drawn) [Example 931, 6-{4-[6-(4-fluorophenyl)-2-(2-methylpyrrolidin-1-yl)pyrimidin-4-yl]piperazin-1-yl}-5-methylnicotinonitrile]",≤ 1 µM
15,"Cc1cc(C#N)cnc1N1CCN(c2cc(-c3ccc(F)cc3)nc(N3CCCC3C)n2)[C@H](C)C1 (stereo partly drawn) [Example 932, 6-{4-[6-(4-fluorophenyl)-2-(2-methylpyrrolidin-1-yl)pyrimidin-4-yl]-3-methylpiperazin-1-yl}-5-methylnicotinonitrile]",≤ 1 µM
16,"CCNC(=O)c1cnc(N2CCN(c3cc(-c4ccc(F)c(Cl)c4)nc(N4CCCC4C)n3)[C@H](C)C2)c(Cl)c1 (stereo partly drawn) [Example 933, 5-chloro-6-{4-[6-(3-chloro-4-fluorophenyl)-2-(2-methylpyrrolidin-1-yl)pyrimidin-4-yl]-3-methylpiperazin-1-yl}-N-ethylnicotinamide]",≤ 1 µM
17,"C[C@@H]1CN(c2ncccc2Cl)CCN1c1cc(-c2ccc(Cl)c(F)c2)nc(N2CCC[C@H]2C)n1 [Example 934, 4-(4-chloro-3-fluorophenyl)-6-[(2R)-4-(3-chloropyridin-2-yl)-2-methylpiperazin-1-yl]-2-[(2R)-2-methylpyrrolidin-1-yl]pyrimidine]",≤ 1 µM
18,"C[C@@H]1CN(c2nccnc2Cl)CCN1c1cc(-c2ccc(F)c(F)c2)nc(N2CCC[C@H]2C)n1 [Example 935, 4-[(2R)-4-(3-chloropyrazin-2-yl)-2-methylpiperazin-1-yl]-6-(3,4-difluorophenyl)-2-[(2R)-2-methylpyrrolidin-1-yl]pyrimidine]",≤ 1 µM
19,"C[C@@H]1CN(c2ncccc2C(F)(F)F)CCN1c1cc(-c2ccc(F)c(F)c2)nc(N2CCC[C@H]2C)n1 [Example 936, 4-(3,4-difluorophenyl)-2-[(2R)-2-methylpyrrolidin-1-yl]-6-{(2R)-2-methyl-4-[3-(trifluoromethyl)pyridin-2-yl]piperazin-1-yl}pyrimidine]",≤ 1 µM
20,"C[C@H]1CN(c2nccnc2Cl)CCN1c1cc(-c2ccc(F)c(F)c2)nc(N2CCCC2)n1 [Example 937, 4-[(2S)-4-(3-chloropyrazin-2-yl)-2-methylpiperazin-1-yl]-6-(3,4-difluorophenyl)-2-pyrrolidin-1-ylpyrimidine]",≤ 1 µM
21,"CC1CCCN1c1nc(-c2ccc(F)c(F)c2)cc(N2CCN(c3nccnc3Cl)C[C@@H]2C)n1 (stereo partly drawn) [Example 938, 4-[(2S)-4-(3-chloropyrazin-2-yl)-2-methylpiperazin-1-yl]-6-(3,4-difluorophenyl)-2-(2-methylpyrrolidin-1-yl)pyrimidine]",≤ 1 µM
22,"C[C@@H]1CN(c2ncccc2Cl)CCN1c1cc(-c2ccc(F)c(Cl)c2)nc(N2CCC[C@H]2C)n1 [Example 940, 4-(3-chloro-4-fluorophenyl)-6-[(2R)-4-(3-chloropyridin-2-yl)-2-methylpiperazin-1-yl]-2-[(2R)-2-methylpyrrolidin-1-yl]pyrimidine]",≤ 1 µM

# Continued, values first:
row,IC50,Structure (SMILES)
1,≤ 1 µM,"Cc1cc(-c2cc(N3CCN(c4ncccc4Cl)C[C@@H]3C)nc(N3CCOCC3)n2)ccc1F [Example 904, 4-[4-[(2S)-4-(3-chloropyridin-2-yl)-2-methylpiperazin-1-yl]-6-(4-fluoro-3-methylphenyl)pyrimidin-2-yl]morpholine]"
2,≤ 1 µM,"Cc1cc(-c2cc(N3CCN(c4ncccc4Cl)C[C@H]3C)nc(N(C)C(C)CO)n2)ccc1F (stereo partly drawn) [Example 905, 2-[[4-[4-(3-chloropyridin-2-yl)-2-methylpiperazin-1-yl]-6-(4-fluoro-3-methylphenyl)pyrimidin-2-yl](methyl)amino]propan-1-ol]"
3,≤ 1 µM,"C[C@@H]1CN(c2nccnc2Cl)CCN1c1nc(Cl)cc(-c2ccc(F)c(Cl)c2)n1 [Example 906, 4-chloro-6-(3-ohloro-4-fluorophenyl)-2-[4-(3-chloropyrazin-2-yl)-2-methylpiperazin-1-yl]pyrimidine]"
4,≤ 1 µM,CC1CCCN1c1nc(-c2ccc(F)c(Cl)c2)cc(N2CCN(c3nccnc3Cl)C[C@H]2C)n1 (stereo partly drawn) [Example 908]
5,≤ 1 µM,"C[C@@H]1CN(c2nccnc2Cl)CCN1c1cc(-c2ccc(F)c(Cl)c2)nc(N2CCCC2)n1 [Example 909, 4-(3-chloro-4-fluorophenyl)-6-[(2R)-4-(3-chloropyrazin-2-yl)-2-methylpiperazin-1-yl]-2-pyrrolidin-1-ylpyrimidine]"
6,≤ 1 µM,"C[C@@H]1CN(c2nccnc2Cl)CCN1c1cc(-c2ccc(F)c(Cl)c2)nc(N2CCOCC2)n1 [Example 910, 4-{4-(3-chloro-4-fluorophenyl)-6-[(2R)-4-(3-chloropyrazin-2-yl)-2-methylpiperazin-1-yl]pyrimidin-2-yl}morpholine]"
7,≤ 1 µM,CC1CCCN1c1cc(-c2ccc(F)c(Cl)c2)nc(N2CCN(c3nccnc3Cl)C[C@H]2C)n1 (stereo partly drawn) [Example 911]
8,≤ 1 µM,"Cc1cc(-c2cc(N3CCN(c4nccnc4Cl)C[C@H]3C)nc(Cl)n2)ccc1F [Example 912, 2-chloro-4-[(2R)-4-(3-chloropyrazin-2-yl)-2-methylpiperazin-1-yl]-6-(4-fluoro-3-methylphenyl)pyrimidine]"
9,≤ 1 µM,"Cc1cc(-c2cc(N3CCN(c4nccnc4Cl)C[C@H]3C)nc(N3CCCC3)n2)ccc1F [Example 914, 4-[(2R)-4-(3-chloropyrazin-2-yl)-2-methylpiperazin-1-yl]-6-(4-fluoro-3-methylphenyl)-2-pyrrolidin-1-ylpyrimidine]"
10,≤ 1 µM,"Cc1cc(-c2cc(N3CCN(c4nccnc4Cl)C[C@H]3C)nc(N3CCOCC3)n2)ccc1F [Example 916, 4-[4-[(2R)-4-(3-chloropyrazin-2-yl)-2-methylpiperazin-1-yl]-6-(4-fluoro-3-methylphenyl)pyrimidin-2-yl]morpholine]"
11,≤ 1 µM,"Cc1cc(-c2cc(N3CCCC3C)nc(N3CCN(c4ncccc4Cl)C[C@@H]3C)n2)ccc1F (stereo partly drawn) [Example 917, 2-[4-(3-chloropyridin-2-yl)-2-methylpiperazin-1-yl]-4-(4-fluoro-3-methylphenyl)-6-(2-methylpyrrolidin-1-yl)pyrimidine]"
